These results are taken from patent publication US20240308960A1 (Sumitomo Pharma Co., Ltd., priority 2021, published 2024).

Structures are written as SMILES.

For the assay, the target named is T1, Human orexin receptor type 2 (Homo sapiens, UniProt O43614).
T1 sequence (O43614 1-444): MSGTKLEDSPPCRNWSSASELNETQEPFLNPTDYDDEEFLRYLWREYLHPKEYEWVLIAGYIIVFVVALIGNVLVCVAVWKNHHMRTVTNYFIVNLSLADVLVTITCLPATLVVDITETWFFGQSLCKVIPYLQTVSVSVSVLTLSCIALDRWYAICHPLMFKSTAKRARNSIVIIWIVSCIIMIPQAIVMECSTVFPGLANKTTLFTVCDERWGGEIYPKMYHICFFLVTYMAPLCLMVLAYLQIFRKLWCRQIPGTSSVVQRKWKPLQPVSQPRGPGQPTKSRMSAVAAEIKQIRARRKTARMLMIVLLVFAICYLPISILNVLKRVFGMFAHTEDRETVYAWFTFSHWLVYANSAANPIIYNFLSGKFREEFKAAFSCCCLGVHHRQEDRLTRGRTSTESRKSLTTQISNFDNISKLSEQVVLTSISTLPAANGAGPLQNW
The experiment in a line: Test Example 1: agonist activity for orexin receptor type 2 (aequorin luminescence, intracellular calcium mobilization). Particulars: compound 10 μm; CHO cells transiently expressing human orexin receptor type 2 and apoaequorin; relative percentage of luminescence for the luminescence (100%) of Orexin A (100 μM). In general terms: A change in cytosolic calcium serves as a functional read-out for many receptors and channels.
Description: Human orexin receptor type 2 and apoaequorin were transiently expressed in CHO cells, and the agonist activity was evaluated based on intracellular calcium mobilization with ligand stimulation. The CHO cells transiently-expressed human orexin receptor type 2 and apoaequorin were seeded on a 384-well plate by 2,000 cells/well, and then incubated for 16-22 hours. After the plate was returned to room temperature, Coelenterazine hcp (final concentration: 1 μM) was added to the plate, and the plate was allowed to stand at room temperature for 2 hours. And then, Orexin A or each test compound was added to the plate, and the luminescence of the cells was measured with FDSS7000 (Hamamatsu Photonics K. K.), wherein Orexin A and each test compound were dissolved in DMSO (final concentration: 0.1%), and diluted with a buffer (Hanks, 20 mM HEPES, 0.1% BSA). The agonist activity of each test compound for orexin receptor type 2 was calculated as relative percentage of luminescence for the luminescence (100%) of Orexin A (100 μM).
Take `CC(C)N1CC=C(c2cccc(F)c2NC(=O)N2CCC(C)(c3nc4ccccc4o3)CC2)CC1` [Example 50, 4-(1,3-benzoxazol-2-yl)-N-{2-fluoro-6-[1-(propan-2-yl)-1,2,3,6-tetrahydropyridin-4-yl]phenyl}-4-methylpiperidine-1-carboxamide]: the “Agonist Activity (%)” value is 187%. Turning to `CC(C)N1CCN(c2cccc(Cl)c2NC(=O)N2CCC(C)(c3csc(C4CC4)n3)CC2)CC1` [Example 96, N-{2-chloro-6-[4-(propan-2-yl)piperazin-1-yl]phenyl}-4-(2-cyclopropyl-1,3-thiazol-4-yl)-4-methylpiperidine-1-carboxamide], the “Agonist Activity (%)” value turned out to be 160%. For `CC(C)N1CCN(c2cccc(F)c2NC(=O)N2CCC(c3ccccn3)CC2)CC1` [Example 36, N-{2-fluoro-6-[4-(propan-2-yl)piperazin-1-yl]phenyl}-4-(pyridin-2-yl)piperidine-1-carboxamide], the “Agonist Activity (%)” value came out at 123%.

`CC(C)N1CCN(c2cccc(F)c2NC(=O)N2CCC(C)(c3noc(C4CCCC4)n3)CC2)CC1` [Example 73, 4-(5-cyclopentyl-1,2,4-oxadiazol-3-yl)-N-{2-fluoro-6-[4-(propan-2-yl)piperazin-1-yl]phenyl}-4-methylpiperidine-1-carboxamide]: the “Agonist Activity (%)” value came to 141%. `CCC1(c2noc(C3CC3)n2)CCN(C(=O)Nc2c(F)cccc2N2CCN(C(C)C)CC2)CC1` [Example 87, 4-(5-cyclopropyl-1,2,4-oxadiazol-3-yl)-4-ethyl-N-{2-fluoro-6-[4-(propan-2-yl)piperazin-1-yl]phenyl}piperidine-1-carboxamide]: the “Agonist Activity (%)” value was found to be 142%. In the case of `Cc1ccc(C2CCN(C(=O)Nc3c(F)cccc3N3CCN(C(C)C)CC3)CC2C)cc1` (racemic) [Example 26, Rac-N-{2-fluoro-6-[4-(propan-2-yl)piperazin-1-yl]phenyl}-3-methyl-4-(4-methylphenyl)piperidine-1-carboxamide], the “Agonist Activity (%)” value is 63%. Turning to `Cc1noc(C2(C)CCN(C(=O)Nc3ccccc3N3CCN(C(C)C)CC3)CC2)n1` [Example 162, 4-Methyl-4-(3-methyl-1,2,4-oxadiazol-5-yl)-N-{2-[4-(propan-2-yl)piperazin-1-yl]phenyl}piperidine-1-carboxamide], the “Agonist Activity (%)” value came out at 100%. With `CC(C)N1CC=C(c2cccc(Cl)c2NC(=O)N2CCC(C)(c3noc(C4CC4)n3)CC2)CC1` [Example 130, N-{2-chloro-6-[1-(propan-2-yl)-1,2,3,6-tetrahydropyridin-4-yl]phenyl}-4-(5-cyclopropyl-1,2,4-oxadiazol-3-yl)-4-methylpiperidine-1-carboxamide], the “Agonist Activity (%)” value was found to be 142%.

Consider `CC(C)N1CCC(c2cccc(F)c2NC(=O)N2CCC(c3cc(C4CC4)on3)CC2)CC1` [Example 51, 4-(5-cyclopropyl-1,2-oxazol-3-yl)-N-{2-fluoro-6-[1-(propan-2-yl)piperidin-4-yl]phenyl}piperidine-1-carboxamide], for which the “Agonist Activity (%)” value stood at 151%. To `CC(C)[C@H]1CO[C@H](c2cccc(Cl)c2NC(=O)N2CCC(C)(c3noc(C4CC4)n3)CC2)CN1` (racemic) [Example 167, Rac-N-{2-chloro-6-[(2R,5S)-5-(propan-2-yl)morpholin-2-yl]phenyl}-4-(5-cyclopropyl-1,2,4-oxadiazol-13-yl)-4-methylpiperidine-1-carboxamide] belongs 183%; to `CC(C)c1ccc(-c2cccc(Cl)c2NC(=O)N2CCC(C)(c3cc(C4CC4)on3)CC2)cn1` [Example 69, N-{2-chloro-6-[6-(propan-2-yl)pyridin-3-yl]phenyl}-4-(5-cyclopropyl-1,2-oxazol-3-yl)-4-methylpiperidine-1-carboxamide], 129%; to `CC(C)N1C[C@H]2C[C@@H]1CN2c1cccc(F)c1NC(=O)N1CCC(C)(c2noc(C3CC3)n2)CC1` [Example 152, 4-(5-cyclopropyl-1,2,4-oxadiazol-3-yl)-N-{2-fluoro-6-[(1R,4R)-5-(propan-2-yl)-2,5-diazabicyclo[2.2.1]heptan-2-yl]phenyl}-4-methylpiperidine-1-carboxamide], 136%. The value for `CC(C)N1CCN(c2cccc(F)c2NC(=O)N2CCC(c3cc(C4CC4)on3)CC2)CC1` [Example 52, 4-(5-cyclopropyl-1,2-oxazol-3-yl)-N-{2-fluoro-6-[4-(propan-2-yl)piperazin-1-yl]phenyl}piperidine-1-carboxamide] was 155%; that for `Cc1ccc(C2CCN(C(=O)Nc3ccccc3N3CCN(C(C)C)CC3)CC2)c(F)c1` [Example 18, 4-(2-fluoro-4-methylphenyl)-N-{2-[4-(propan-2-yl)piperazin-1-yl]phenyl}piperidine-1-carboxamide] was 128%. Regarding `Cc1ccc(-c2cccc(F)c2NC(=O)N2CCC(C)(c3cc(C4CC4)on3)CC2)cn1` [Example 68, 4-(5-cyclopropyl-1,2-oxazol-3-yl)-N-[2-fluoro-6-(6-methylpyridin-3-yl)phenyl]-4-methylpiperidine-1-carboxamide], the “Agonist Activity (%)” value amounted to 68%. The value for `CCOc1cccc(C2CCN(C(C)C)CC2)c1NC(=O)N1CCC(c2ccc(C)cc2)CC1` [Example 127, N-{2-ethoxy-6-[1-(propan-2-yl)piperidin-4-yl]phenyl}-4-(4-methylphenyl)piperidine-1-carboxamide] was 145%; that for `Cc1ccc(C2CCN(C(=O)Nc3ccc(F)cc3N3CCN(C(C)C)CC3)CC2)cc1` [Example 10, N-{4-fluoro-2-[4-(propan-2-yl)piperazin-1-yl]phenyl}-4-(4-methylphenyl)piperidine-1-carboxamide] was 34%. The value for `CC1(c2noc(C3CC3)n2)CCN(C(=O)Nc2c(Cl)cccc2C2=CCN(C3CCC3)CC2)CC1` [Example 131, N-[2-chloro-6-(1-cyclobutyl-1,2,3,6-tetrahydropyridin-4-yl)phenyl]-4-(5-cyclopropyl-1,2,4-oxadiazol-3-yl)-4-methylpiperidine-1-carboxamide] was 150%; that for `Cc1onc(C2(C)CCN(C(=O)Nc3c(Cl)cccc3N3CCN(C(C)C)CC3)CC2)c1Cl` [Example 90, 4-(4-chloro-5-methyl-1,2-oxazol-3-yl)-N-{2-chloro-6-[4-(propan-2-yl)piperazin-1-yl]phenyl}-4-methylpiperidine-1-carboxamide] was 164%. Consider `COCCN1CCN(c2ccccc2NC(=O)N2CCC(c3ccc(C)cc3)CC2)CC1` [Example 125, N-{2-[4-(2-methoxyethyl)piperazin-1-yl]phenyl}-4-(4-methylphenyl)piperidine-1-carboxamide], for which the “Agonist Activity (%)” value is reported as 141%.

In the case of `CCC1(c2noc(C3CC3)n2)CCN(C(=O)Nc2c(Cl)cccc2N2CCN(C(C)C)CC2)CC1` [Example 89, N-{2-chloro-6-[4-(propan-2-yl)piperazin-1-yl]phenyl}-4-(5-cyclopropyl-1,2,4-oxadiazol-3-yl)-4-ethylpiperidine-1-carboxamide], the “Agonist Activity (%)” value was determined as 152%. On to `Cc1ccc(C2CCN(C(=O)Nc3c(F)cccc3N3CCN(C(C)C)CC3)CC2)cc1` [Example 9, N-{2-fluoro-6-[4-(propan-2-yl)piperazin-1-yl]phenyl}-4-(4-methylphenyl)piperidine-1-carboxamide], for which the “Agonist Activity (%)” value was determined as 132%.

Regarding `CC(C)c1ccc(-c2cccc(F)c2NC(=O)N2CCC(C)(c3noc(C4CC4)n3)CC2)cc1` [Example 65, 4-(5-cyclopropyl-1,2,4-oxadiazol-3-yl)-N-[3-fluoro-4′-(propan-2-yl) [1,1′-biphenyl]-2-yl]-4-methylpiperidine-1-carboxamide], the “Agonist Activity (%)” value came out at 93%. In the case of `Cc1ccc(C2CCN(C(=O)Nc3c(C(=O)N(C)C)cccc3N3CCN(C(C)C)CC3)CC2)cc1` [Example 33, N-{2-(dimethylcarbamoyl)-6-[4-(propan-2-yl)piperazin-1-yl]phenyl}-4-(4-methylphenyl)piperidine-1-carboxamide], the “Agonist Activity (%)” value is given as 150%. Regarding `COc1cccc(N2CCN(C(C)C)CC2)c1NC(=O)N1CCC(C)(c2noc(C(F)(F)F)n2)CC1` [Example 25, N-{2-methoxy-6-[4-(propan-2-yl)piperazin-1-yl]phenyl}-4-methyl-4-[5-(trifluoromethyl)-1,2,4-oxadiazol-3-yl]piperidine-1-carboxamide], the “Agonist Activity (%)” value came out at 136%. For `Cc1ccc(C2CCN(C(=O)Nc3cccc(F)c3N3CCN(C(C)C)CC3)CC2)cc1` [Example 11, N-{3-fluoro-2-[4-(propan-2-yl)piperazin-1-yl]phenyl}-4-(4-methylphenyl)piperidine-1-carboxamide], the “Agonist Activity (%)” value worked out at 142%. `CC(C)N1CCN(c2cccc(Cl)c2NC(=O)N2CCC(C)(c3ncc(C4CC4)s3)CC2)CC1` [Example 101, N-{2-chloro-6-[4-(propan-2-yl)piperazin-1-yl]phenyl}-4-(5-cyclopropyl-1,3-thiazol-2-yl)-4-methylpiperidine-1-carboxamide]: the “Agonist Activity (%)” value was found to be 157%. As for `CC(C)N1CCN(c2cccc(F)c2NC(=O)N2CCC(C)(c3cc(C4CC4)on3)CC2)CC1` [Example 54, 4-(5-cyclopropyl-1,2-oxazol-3-yl)-N-{2-fluoro-6-[4-(propan-2-yl)piperazin-1-yl]phenyl}-4-methylpiperidine-1-carboxamide], the “Agonist Activity (%)” value stood at 140%.
